Results on 1 compound are retold here after patent US11980607B2, “Methods of treating malignant lymphoproliferative disorders” (Actuate Therapeutics Inc., priority 2018, dated 2024).

Test [1] relates to SUDHL-4, KPUM-UH1, Karpas 22, or TMD8 lymphoma cells. The test is described as follows: cells. The class given is cell-based. As for the experimental part:
FIGS. 1A-1E show the viability and proliferation of lymphoma cells with 9-ING-41 treatment. 10,000 cells (SUDHL-4 (FIG. 1B), KPUM-UH1 (FIG. 1C), Karpas 422 (FIG. 1D), TMD8 (FIG. 1E)) per 96-well plate well were left untreated or treated with 1 μM 9-ING-41 in triplicate, and the number of cells on days 1, 3, 5 and 7 were calculated using the MTS assay. Briefly, 20 μL of MTS reagent was added to cells and incubated for 2 hours and, the absorbance at 490 nm (A490) was read using a Biotek plate reader. Absorbance at OD=490 nm increases proportionally to cell density. Error bars represent std. deviation between replicates.
Daudi (Burkitt) and SUDHL-4 (germinal center (GC) diffuse large B-cell lymphoma (DLBCL)) cell lines were purchased from […]. (ATCC). KPUM-UH1 (double hit DLBCL) cells were obtained from Junya Kuroda, Kyoto Prefectural University of Medicine, Kyoto, Japan. All cell lines were cultured aseptically and maintained in a water-jacketed incubator (Thermo-Forma) at 37° C. with 5% CO2 and fed with RPMI-1640 (Corning) containing […] glutamine, 10% FBS (Sigma), and antibiotic and antimycotic reagent (Gemini Bioproducts; final concentrations—100 units/mL penicillin G, 100 μg/mL streptomycin sulfate, and 250 ng/mL amphotericin B). Karpas 422 (GC-DLBCL) cells was purchased from Sigma. […] All cell numbers for assays were quantified using a TC20 automated cell counter (BioRad). […]
Cell viability at day 3 and proliferation over the course of 7 days were measured after treating cells with varying concentrations of 9-ING-41 using the Promega CellTiter 96® AQueous One Solution Cell Proliferation Assay reagent (MTS) in accordance with the manufacturer's instructions. […] The absorbance at 490 nm (A490) was determined using a Powerwave XS plate reader (Biotek).
All lymphoma cell lines used in this study express active GSK-3β. SUDHL-4, KPUM-UH1, […], or TMD8 lymphoma cells were plated, and cell numbers on days 1, 3, 5 and 7 were measured using the MTS assay. […]

Test [2] deals with Diffuse large B-cell lymphoma. The test is described as follows: Treatment of Diffuse Large B-cell Lymphoma in a human. The following applies: 1 mg/kg per day, six 21 day cycles. The class given is in vivo. Here is the method:
A human suffering from Diffuse large B-cell lymphoma is administered 1 mg/kg per day of 9-ING-41 for six 21 day cycles. After treatment, the human's DLBCL is in remission.

Each structure is given as a SMILES string.

As for `Cn1cc(C2=C(c3coc4ccc(F)cc34)C(=O)NC2=O)c2cc3c(cc21)OCO3` [9-ING-41, 3-(5-Fluorobenzofuran-3-yl)-4-(5-methyl-5H-[1,3]dioxolo[4,5-f]indol-7-yl)pyrrole-2,5-dione], in test [1] (1 μM 9-ING-41, day 7, all lymphoma cell lines, p<0.05), the “Proliferation on day 7, relative to control” value is given as “less than 30%”. Moreover, in test [1] (72 h, read-out: Reduction of cell viability on day 3), the cytotoxicity at 1 µM fell in the range of 40 to 70%. In test [1] (tested 0.1, 0.5, 1, 5 and 10 μM), the “Concentration at which a reduction in viability was seen” value was at least 0.5 µM. Besides, the Outcome after treatment result in test [2] is “in remission”.
